Data from US11597708B2, “Inhibitors of heat shock factors and uses thereof” (HSF Pharmaceuticals SA, priority 2016, dated 2023).

Columns and labels:
HSE DNA-binding activity = biological target: T1, HSE DNA-binding activity (Homo sapiens, UniProt Q00613); assay: EMSA using extracts of heat-treated HeLa cells, in the presence of IHSF; type: biochemical; settings: extracts of HeLa cells heat-treated at 43° C. for 30 min; concentrations as high as about 0.5 mM
T1 construct: functionally linked to an hsp70b promoter and therefore controlled by endogenous HSF1; endogenous in cells; host or cells: HeLa cells / HeLa-derived cell line Z74
T1 sequence (Q00613 1-529): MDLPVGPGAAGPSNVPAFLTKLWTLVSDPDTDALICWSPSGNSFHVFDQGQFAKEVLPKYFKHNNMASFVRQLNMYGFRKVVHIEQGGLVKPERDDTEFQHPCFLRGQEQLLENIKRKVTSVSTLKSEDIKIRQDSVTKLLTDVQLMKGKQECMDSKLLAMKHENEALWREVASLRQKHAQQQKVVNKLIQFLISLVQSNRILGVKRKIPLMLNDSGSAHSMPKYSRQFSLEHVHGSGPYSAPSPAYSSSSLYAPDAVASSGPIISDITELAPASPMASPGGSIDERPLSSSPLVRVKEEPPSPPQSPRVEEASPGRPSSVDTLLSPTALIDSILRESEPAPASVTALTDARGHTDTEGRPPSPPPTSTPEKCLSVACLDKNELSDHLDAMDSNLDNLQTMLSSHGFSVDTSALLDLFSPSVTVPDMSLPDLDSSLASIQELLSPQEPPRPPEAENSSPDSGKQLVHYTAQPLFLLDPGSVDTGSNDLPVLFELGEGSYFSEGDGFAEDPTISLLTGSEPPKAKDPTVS
Protocol: Electrophoretic mobility shift assays (EMSA) using a radiolabeled HSE DNA probe were carried out to assess HSF1 DNA-binding activity in extracts of heat-treated (43° C./30 min) HeLa cells that had been exposed to different concentrations of compounds 058 or 115 (FIG. 3A, top panels). […] HSF1 degradation correlated well with the observed decrease in DNA-binding activity. Therefore, HSF1 degradation provides a sufficient explanation for the reduced HSE DNA-binding activity in cells treated with IHSF 058. […] EMSA were also carried out using extracts of HeLa cells that had been heat-treated at 43° C. for 30 min.

MM.1S = assay: Alamar Blue viability assay; type: cell-based, human
Protocol: FIG. 5. (A) Viability of HeLa cell cultures mock-exposed (−) or exposed to the indicated concentrations of compounds 001, 058 or 115. (B) Viability of MM.1S cells mock-exposed (−) or exposed to the indicated concentrations of compound 115. Viability was assayed after 96 hours of exposure using an Alamar Blue assay.
Cultures of HeLa cells were exposed for 96 hours to different concentrations of IHSF 001, 058 and 115, and viability was assessed using an Alamar Blue assay. It is noted that this standard assay examines attached cells only. This subject will be discussed in more detail below. […] The relative cytotoxicity of the compounds appears to parallel their respective activities as inhibitors of HSF1 function (inhibition of RLuc expression in Z74 cells). We next examined the viability of different human cancer cell lines subsequent to a 96-hour exposure to compound 115 (Table 3). HSF1 was reported as being required for optimal p21 expression and for p53-mediated cell cycle arrest in response to genotoxins. Logan, I. R. et al. (2009) Nucleic Acids Res. 37: 2962-2971. […] Cell lines of different p53 status were included in the experiments in order to find out whether sensitivity to IHSF 115 was related to p53 status. […] No effect of p53 status could be discovered. It is noted that a number of additional HSF inhibitors of the present disclosure were tested and found to effectively reduce the viability of human cancer cells.

HeLa cells = assay: Trypan Blue staining, live and necrotic cells; type: cell-based, human
Protocol: FIG. 6. (A) HeLa cell cultures were mock-exposed (−) or exposed to the indicated concentrations of compound 115 for 24 (left panel) or 96 (right panel) hours. Cell viability of total cultures, floating cells and attached cells was assayed using an Alamar Blue assay. (B) HeLa cell cultures were mock-exposed (−) or exposed to the indicated concentrations of compound 115 for 15-96 hours. Trypan Blue dye exclusion was employed to determine numbers of live cells (left panel) and relative levels of necrotic cells (right panel). (C) HeLa cell cultures were mock-exposed (−) or exposed to the indicated concentrations of compound 115 for 6 and 24 h. Shown are relative levels of early apoptotic cells (annexin-positive, 7 aminoactinomycin D-negative). (D) Flow cytometric analysis of DNA of HeLa cell cultures mock-exposed (−) or exposed to the indicated concentrations of compound 115 for 6, 15 and 24 hours. Relative levels of apoptotic cells are indicated.
Further studies were aimed at finding out whether IHSF-exposed cancer cells were only growth-arrested or were actually killed and, if they were killed, by what mechanism. […] The viability signal (in whole cultures and, more dramatically, when only attached cells were analyzed) decreased as a function of IHSF concentration. […] Stained (necrotic) and unstained (live) cells were counted (FIG. 6B). […]

SMILES | HSE DNA-binding activity (EMSA) in the presence of IHSF (HSE DNA-binding activity) | concentration at which complete loss of viability of MM.1S cells occurred (MM.1S; 96 hours exposure, Alamar Blue) [µM] | EC50 (MM.1S; Homo sapiens, MM1.S, MM.1S, Multiple myeloma, P53 Wt, 96-hour exposure) [nM] | concentration at which complete loss of viability of MM.1S cells occurred, in some experiments (MM.1S; in some experiments already) [µM] | necrotic HeLa cells (Trypan Blue) (HeLa cells; 15-hour exposure to 3.125 μM) | numbers of live and necrotic HeLa cells (Trypan Blue) (HeLa cells; exposure for 15, 24 and 96 hours)
CCOC(=O)/C=C/C(=O)Nc1nccs1 [IHSF 001, (E)-ethyl 4-oxo-4-(thiazol-2-ylamino)but-2-enoate] | no reduction | – | – | – | – | –
CN(C(=O)/C=C/C1=NCCCO1)c1ncc(-c2cccnc2)s1 [IHSF 115, (E)-3-(5,6-Dihydro-4H-[1,3]oxazin-2-yl)-N-methyl-N-(5-pyridin-3-yl-thiazol-2-yl)-acrylamide] | – | 6.25 | 1700 | 3.125 | increase in necrotic cells was already apparent | caused numbers of live cells to decrease and numbers of necrotic cells to increase in a concentration- and time-dependent fashion
